For data set [1], the system named is ZVI sensitive OEC-M1 cells. As to the kind of experiment: Cell survival assay, ZVI@CMC NPs plus ROS scavenger, OEC-M1. Type of data set: cell-based. The following applies: 48 h, FIG. 4; for cell viability recovered as compared with ZVI@CMC NPs alone: ROS scavenger together with 5 μg/mL ZVI@CMC NPs. Here is the method: (§1) Cytotoxicity of the ZVI NPs was evaluated by the MTT assay using 3-(4,5-dimethylthiazol-2-yl)-2,5-diphenyltetrazolium bromide. Log-phase OSCC cells were seeded at a density of 5000 cells per well in a 96-well culture plate and incubated for 16 h. The attached cells were then incubated with a series of concentrations of ZVI NPs for 48 h. Subsequently, culture medium of the cells were replaced by fresh complete medium contained 0.5 mg/mL of MTT and the cells were incubated at 37° C. for 1 h. After removing the medium, the resulting MTT crystals were dissolved in DMSO and measured for their optical absorbance at 550 nm to determine viability of the cells.
(§2) Additionally, various cell survival assays were conducted by incubating the cells with 5 μg/mL of ZVI@CMC NPs in combination with an iron chelator (eg. 1 μM of 1, 10-phenanthroline or 1 μM of desferoxamine (DFO)), a ROS scavenger (eg. 100 μM of vitamin C, 100 μM of vitamin E, 100 μM of TEMPOL, 5 μM of mito-lEMPOL, 100 μM Trolox, 100 μM Tiron, or 500 μM NAC), a ferroptosis inhibitor (eg. 5 μM of liproxstatin and 50 μM of ferrostatin) or a ferroptosis inducer (eg. 0.05 μM of RSL-3 or 1 μM of erastin) for 48 h.

Data set [2] relates to ZVI sensitive cells OEC-M1 and SCC-9. The data set is described as follows: Cell survival assay, ZVI@CMC NPs plus co-agent, OEC-M1 and SCC-9. The following applies: added to 5 μg/mL ZVI@CMC NPs, 48 h; FIG. 7B. As to the method:
as §1, §2

Data set [3] has as its system ZVI sensitive SCC-9 and OEC-M1 cell lines. The data set is described as follows: Mitochondrial membrane potential (MitoTracker flow cytometry), sensitive lines. Format: cell-based. The note with it: added to ZVI@CMC NPs; FIG. 7C. As to the method: Depolarization of the ZVI NP treated cells was assessed by double staining with 50 nM of MitoTracker Green, a commercial dye for indicating total mitochondrial mass, and 100 nM of MitoTracker Deep Red, another commercial dye for indicating mitochondria membrane potential (ΔΨ), at 37° C. for 30 min, followed by analysis of red fluorescent signals under an excitation wavelength of 644 nm and an emission wavelength of 665 nm and green fluorescent signals under an excitation wavelength of 490 nm and an emission wavelength of 516 nm by a BD Canto II Flow Cytometer.
(In general: In flow cytometry, cells or beads pass a laser one at a time.)

For a further data set, the system named is ZVI refractory cells. The data set is described as follows: Depolarized cells, ZVI@CMC NPs plus ferroptosis inducer, refractory cells. Format: cell-based. The following applies: ferroptosis inducer with ZVI@CMC NPs; FIG. 10A.
In data set [4] the test system is ZVI refractory HSC-3, SAS and OEC-M1 R3 cells. As to the kind of experiment: Cell survival assay, ZVI@CMC NPs plus ferroptosis inducer, refractory cells. The note with it: ferroptosis inducer in combination with 5 μg/mL ZVI@CMC NPs, 48 h; FIG. 10A. Type of data set: cell-based. Here is the method: as §1, §2
For the next data set, the system named is ZVI refractory SAS cells. As to the kind of experiment: SAS tumor xenograft in SCID mice, tumor growth. The note with it: 20 mg/kg RSL-3 together with 25 mg/kg ZVI@CMC NPs, tail vein, every other day x4; FIGS. 10B-10D. Type of data set: in vivo. The source says: Six to eight week old male mice with severe combined immunodeficiency (SCID) were used as the hosts for OSCC tumor xenografts. 3×10^6 SAS cells were subcutaneously injected into the dorsal flank of the mice to establish tumor lesions. A visible tumor mass was normally observed 1.5 to 2 weeks after the injection. When the tumor size reached approximately 50 mm^3, the mice were randomly assigned to four groups, including a PBS control group, a RSL-3 treatment group, a ZVI@CMC NP treatment group and a ZVI@CMC NP+RSL-3 treatment group (n=4 per group). PBS solution, 20 mg/kg of RSL-3 and 25 mg/kg of ZVI@CMC NPs were individually administered to the mice through tail vein injection once every other day for four times before the final tumor size in every group was measured. The Tumor volumes were measured by a digital caliper and calculated using the formula: […].

Each structure is given as a SMILES string.

Regarding `CC(=O)N[C@@H](CS)C(=O)O` [NAC, N-acetylcysteine], the “effect of co-agent on cytotoxicity of ZVI@CMC NPs” value in data set [1] (cotreatment with 5 μg/mL ZVI@CMC NPs) was “reduce cytotoxicity”.

In the case of `Clc1cccc(CN=C2Nc3ccccc3NC23CCNCC3)c1` [liproxstatin], in data set [2], the “recovery of cell viability of ZVI@CMC NP treated cells” value is ~50%. Also, in data set [3], the “percentage of depolarized cells caused by ZVI@CMC NP induced mitochondrial hyperoxidation” value is reported as “reduce the percentage of depolarized cells”.

Consider `CC1(C)CC(O)CC(C)(C)N1[O]` [TEMPOL, 4-hydroxy-2,2,6,6-tetramethylpiperidin-1-oxyl], for which, in data set [1], the “cell viability recovered as compared with ZVI@CMC NPs alone” value is recorded as “about 50%”. Consider `CCOc1ccccc1-n1c(C(C)N2CCN(C(=O)COc3ccc(Cl)cc3)CC2)nc2ccccc2c1=O` (stereo not shown) [erastin, 2-[1-[4-[2-(4-chlorophenoxy)acetyl]piperazin-1-yl]ethyl]-3-(2-ethoxyphenyl)quinazolin-4-one], for which, in the data set on ZVI refractory cells, the “percentage of depolarized cells” value is “dramatically increased”. For the same compound, the “cell viability as compared with ZVI@CMC NPs alone” value in data set [4] is reported as “significantly reduced”.

`COC(=O)c1ccc([C@H]2c3[nH]c4ccccc4c3C[C@H](C(=O)OC)N2C(=O)CCl)cc1` [RSL-3, methyl (1S,3R)-2-(2-chloroacetyl)-1-(4-methoxycarbonylphenyl)-1,3,4,9-tetrahydropyrido[3,4-b]indole-3-carboxylate]: the “percentage of depolarized cells” value in the data set with ZVI refractory cells was “dramatically increased”. Also, the “cell viability as compared with ZVI@CMC NPs alone” value in data set [4] was “significantly reduced”. The “tumor growth as compared to ZVI@CMC NPs or RSL-3 alone” value in the data set on ZVI refractory SAS cells was “significantly delayed”. Take `Cc1c(C)c2c(c(C)c1O)CCC(C)(C(=O)O)O2` (stereo not shown) [Trolox, 6-Hydroxy-2,5,7,8-tetramethylchroman-2-carboxylic acid]: the “cell viability recovered as compared with ZVI@CMC NPs alone” value in data set [1] is given as “about 50%”. As to `CCOC(=O)c1ccc(NC2CCCCC2)c(N)c1` [ferrostatin], the “recovery of cell viability of ZVI@CMC NP treated cells” value in data set [2] was ~50%. Also, in data set [3], the “percentage of depolarized cells caused by ZVI@CMC NP induced mitochondrial hyperoxidation” value is “reduce the percentage of depolarized cells”. For `O=S(=O)([O-])c1cc(O)c(O)c(S(=O)(=O)[O-])c1.[Na+].[Na+]` [Tiron, disodium 4,5-dihydroxy-1,3-benzenedisulfonate], the “cell viability recovered as compared with ZVI@CMC NPs alone” value in data set [1] is given as “about 50%”.

Source of the values: US20200397817A1, “METHOD FOR PREDICTING AND MODULATING SUSCEPTIBILITY OF CANCER CELL TO PROGRAMMED CELL DEATH” (SHIEH, Darbin, priority 2017, published 2020).
